These results are taken from ChEMBL document CHEMBL4190397, “Design and Synthesis of Novel and Selective Glycine Transporter-1 (GlyT1) Inhibitors with Memory Enhancing Properties” (J Med Chem, 2018).

pIC50: −log10 of the molar value.

The nature of data set [1]: Intrinsic clearance in human liver microsomes at 1 uM assessed per mg protein at 37 degC up to 60 mins in presence of NADPH by HPLC-MS analysis. Format: ADME, microsome. The note with it: read-out: CLH.
Data set [2] has as its target T1, Sodium- and chloride-dependent glycine transporter 1 (Homo sapiens, UniProt P48067).
T1 sequence (P48067 whole entry): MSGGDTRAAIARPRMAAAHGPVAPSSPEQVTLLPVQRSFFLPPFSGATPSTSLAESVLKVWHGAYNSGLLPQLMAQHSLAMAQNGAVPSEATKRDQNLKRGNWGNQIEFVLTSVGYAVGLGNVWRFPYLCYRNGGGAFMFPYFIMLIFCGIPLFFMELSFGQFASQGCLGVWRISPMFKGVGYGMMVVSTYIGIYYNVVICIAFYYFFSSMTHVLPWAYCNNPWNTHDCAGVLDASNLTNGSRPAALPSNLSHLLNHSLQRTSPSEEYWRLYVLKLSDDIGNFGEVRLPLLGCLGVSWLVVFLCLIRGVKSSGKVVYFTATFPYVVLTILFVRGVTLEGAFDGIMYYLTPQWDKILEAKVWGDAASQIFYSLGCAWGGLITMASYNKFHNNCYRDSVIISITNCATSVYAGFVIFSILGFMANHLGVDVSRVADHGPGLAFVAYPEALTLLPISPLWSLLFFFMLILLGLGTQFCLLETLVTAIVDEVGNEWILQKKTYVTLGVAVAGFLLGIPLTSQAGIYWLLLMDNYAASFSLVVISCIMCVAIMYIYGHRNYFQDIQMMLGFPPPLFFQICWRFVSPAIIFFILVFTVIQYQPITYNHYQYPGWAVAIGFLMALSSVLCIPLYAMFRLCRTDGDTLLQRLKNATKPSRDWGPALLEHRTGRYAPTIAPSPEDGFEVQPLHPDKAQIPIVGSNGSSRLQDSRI
The data set can be described thus: Inhibition of recombinant human GlyT1c expressed in HEK293 cells assessed as reduction in [14C]glycine uptake after 2 hrs by microbeta scintillation counting method. Format: cell-based.

Data set [3] in a line: Apparent permeability from basolateral to apical side in MDCK-MDR1 cells monolayer at 5 uM after 60 mins by LC-MS/MS analysis. The note with it: dog.
A further data set concerns the target Cytochrome P450 2D6 (Homo sapiens, UniProt P10635). Kind of data set: Inhibition of CYP2D6 in human liver microsomes using dextromethorphan as substrate measured after 10 mins in presence of NADPH by LC-MS/MS analysis.
The target of the next data set is Cytochrome P450 2C19 (Homo sapiens, UniProt P33261). The data set can be described thus: Inhibition of CYP2C19 in human liver microsomes using S-mephenytoin as substrate measured after 10 mins in presence of NADPH by LC-MS/MS analysis.
The nature of data set [4]: Permeability of the compound at pH 7.4 at 100 uM after 60 mins by PAMPA-BBB assay.
A further data set addresses Cytochrome P450 2C9 (Homo sapiens, UniProt P11712). Kind of data set: Inhibition of CYP2C9 in human liver microsomes using diclofenac as substrate measured after 10 mins in presence of NADPH by LC-MS/MS analysis. In general terms: Liver microsomes are a subcellular fraction often used to study metabolism.
For data set [5], the target named is T2, Sodium- and chloride-dependent glycine transporter 1 (Rattus norvegicus, UniProt P28572).
T2 sequence (P28572 whole entry): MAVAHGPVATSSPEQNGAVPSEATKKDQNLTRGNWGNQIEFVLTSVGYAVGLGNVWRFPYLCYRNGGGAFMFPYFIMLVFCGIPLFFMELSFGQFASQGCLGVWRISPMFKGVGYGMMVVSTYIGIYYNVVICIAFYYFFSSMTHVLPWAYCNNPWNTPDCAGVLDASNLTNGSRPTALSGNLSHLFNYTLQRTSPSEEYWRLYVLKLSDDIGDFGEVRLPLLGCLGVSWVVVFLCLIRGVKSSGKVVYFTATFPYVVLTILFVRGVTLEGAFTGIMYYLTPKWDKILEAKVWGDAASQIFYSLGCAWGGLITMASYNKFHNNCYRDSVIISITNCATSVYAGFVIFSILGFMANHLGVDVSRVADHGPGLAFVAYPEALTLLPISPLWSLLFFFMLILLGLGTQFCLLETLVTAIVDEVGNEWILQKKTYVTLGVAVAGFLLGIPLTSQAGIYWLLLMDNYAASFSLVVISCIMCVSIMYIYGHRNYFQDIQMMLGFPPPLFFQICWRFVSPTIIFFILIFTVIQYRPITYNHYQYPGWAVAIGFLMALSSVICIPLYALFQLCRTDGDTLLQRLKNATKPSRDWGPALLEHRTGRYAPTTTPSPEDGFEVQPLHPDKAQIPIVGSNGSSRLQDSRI
Kind of data set: Inhibition of GlyT1 in primary rat cortical neurons assessed as reduction in [14C]glycine uptake after 2 hrs by microbeta scintillation counting method.

For the next data set, the target named is T3, Cytochrome P450 1A2 (Homo sapiens, UniProt P05177).
T3 sequence (P05177 whole entry): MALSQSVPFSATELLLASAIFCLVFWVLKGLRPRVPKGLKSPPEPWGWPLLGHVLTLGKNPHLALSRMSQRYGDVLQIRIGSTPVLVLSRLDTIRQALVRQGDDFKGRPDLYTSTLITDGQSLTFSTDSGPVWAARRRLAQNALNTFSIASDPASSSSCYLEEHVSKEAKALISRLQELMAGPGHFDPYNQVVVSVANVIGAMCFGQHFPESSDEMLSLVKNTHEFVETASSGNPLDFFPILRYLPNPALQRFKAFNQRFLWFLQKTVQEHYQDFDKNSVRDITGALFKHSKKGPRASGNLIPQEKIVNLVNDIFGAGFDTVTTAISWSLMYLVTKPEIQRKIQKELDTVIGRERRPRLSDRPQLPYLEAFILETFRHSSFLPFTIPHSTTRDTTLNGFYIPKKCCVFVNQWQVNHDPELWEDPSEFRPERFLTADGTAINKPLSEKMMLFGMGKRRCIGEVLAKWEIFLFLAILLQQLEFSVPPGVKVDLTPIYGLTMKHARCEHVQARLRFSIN
The data set can be described thus: Inhibition of CYP1A2 in human liver microsomes using phenacetin as substrate measured after 10 mins in presence of NADPH by LC-MS/MS analysis.

Data set [6] can be described thus: Efflux ratio of apparent permeability from basolateral to apical over apical to basolateral side in MDCK-MDR1 cells at 5 uM after 60 mins by LC-MS/MS analysis. The note with it: dog.
The next data set concerns the target Cytochrome P450 3A4 (Homo sapiens, UniProt P08684). Kind of data set: Inhibition of CYP3A4 in human liver microsomes using midazolam as substrate measured after 7 mins in presence of NADPH by LC-MS/MS analysis.
A short description of data set [7]: Intrinsic clearance in rat liver microsomes at 1 uM assessed per mg protein at 37 degC up to 30 mins in presence of NADPH by HPLC-MS analysis. Format: ADME, microsome. The note with it: read-out: CLH.

Chain of Cytochrome P450 2C19 (P33261 whole entry): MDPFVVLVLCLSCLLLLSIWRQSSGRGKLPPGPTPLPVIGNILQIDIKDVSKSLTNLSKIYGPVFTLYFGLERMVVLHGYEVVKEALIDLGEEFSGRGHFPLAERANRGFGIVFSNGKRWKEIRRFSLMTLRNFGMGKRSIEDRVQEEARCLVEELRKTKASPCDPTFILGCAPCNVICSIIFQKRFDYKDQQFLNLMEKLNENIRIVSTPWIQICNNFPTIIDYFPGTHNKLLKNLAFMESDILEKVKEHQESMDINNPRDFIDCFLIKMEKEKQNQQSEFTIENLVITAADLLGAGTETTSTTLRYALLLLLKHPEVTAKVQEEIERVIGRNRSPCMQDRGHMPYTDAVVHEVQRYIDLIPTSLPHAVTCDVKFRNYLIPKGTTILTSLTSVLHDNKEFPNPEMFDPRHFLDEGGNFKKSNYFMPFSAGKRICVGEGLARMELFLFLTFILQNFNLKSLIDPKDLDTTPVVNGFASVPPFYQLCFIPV
Chain of Cytochrome P450 3A4 (P08684 whole entry): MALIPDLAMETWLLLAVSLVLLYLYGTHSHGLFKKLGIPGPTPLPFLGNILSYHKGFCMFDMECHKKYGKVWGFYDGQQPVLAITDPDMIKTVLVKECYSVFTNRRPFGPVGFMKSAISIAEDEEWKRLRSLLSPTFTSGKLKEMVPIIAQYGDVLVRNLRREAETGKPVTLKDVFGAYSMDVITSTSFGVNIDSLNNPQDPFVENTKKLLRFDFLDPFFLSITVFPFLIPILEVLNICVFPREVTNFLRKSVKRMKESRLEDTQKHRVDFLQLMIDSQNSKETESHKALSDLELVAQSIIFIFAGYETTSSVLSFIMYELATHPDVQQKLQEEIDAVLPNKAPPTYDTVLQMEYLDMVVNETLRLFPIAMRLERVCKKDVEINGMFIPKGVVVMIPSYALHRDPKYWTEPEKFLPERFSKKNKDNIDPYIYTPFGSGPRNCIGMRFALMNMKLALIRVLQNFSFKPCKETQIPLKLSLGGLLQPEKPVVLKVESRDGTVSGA
Chain of Cytochrome P450 2D6 (P10635 whole entry): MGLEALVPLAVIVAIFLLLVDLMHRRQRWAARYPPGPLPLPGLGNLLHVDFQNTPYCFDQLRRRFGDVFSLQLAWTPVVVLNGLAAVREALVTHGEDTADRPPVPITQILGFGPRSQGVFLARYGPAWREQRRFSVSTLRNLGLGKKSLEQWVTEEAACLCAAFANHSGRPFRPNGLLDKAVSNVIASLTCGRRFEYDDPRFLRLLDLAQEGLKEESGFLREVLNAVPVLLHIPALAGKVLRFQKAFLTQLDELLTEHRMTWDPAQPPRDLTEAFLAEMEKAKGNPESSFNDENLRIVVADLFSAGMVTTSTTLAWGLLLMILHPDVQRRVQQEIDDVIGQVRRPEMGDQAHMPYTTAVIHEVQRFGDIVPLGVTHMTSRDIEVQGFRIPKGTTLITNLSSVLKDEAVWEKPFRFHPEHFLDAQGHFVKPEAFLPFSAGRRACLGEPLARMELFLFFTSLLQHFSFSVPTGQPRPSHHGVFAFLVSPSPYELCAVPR
Chain of Cytochrome P450 2C9 (P11712 whole entry): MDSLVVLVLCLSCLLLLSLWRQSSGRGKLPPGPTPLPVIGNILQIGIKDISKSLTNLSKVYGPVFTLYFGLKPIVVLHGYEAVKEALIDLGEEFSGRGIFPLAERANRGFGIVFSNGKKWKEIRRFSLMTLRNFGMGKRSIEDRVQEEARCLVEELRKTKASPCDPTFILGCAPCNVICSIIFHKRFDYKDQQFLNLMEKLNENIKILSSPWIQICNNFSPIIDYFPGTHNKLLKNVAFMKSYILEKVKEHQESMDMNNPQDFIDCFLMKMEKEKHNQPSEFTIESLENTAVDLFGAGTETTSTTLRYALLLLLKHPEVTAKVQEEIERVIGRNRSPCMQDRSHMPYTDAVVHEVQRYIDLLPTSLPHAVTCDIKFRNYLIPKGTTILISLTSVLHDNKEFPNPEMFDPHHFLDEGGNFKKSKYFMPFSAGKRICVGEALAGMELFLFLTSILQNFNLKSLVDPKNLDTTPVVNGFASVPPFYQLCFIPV

For orientation: pIC50 means −log10 of the IC50, conventionally taken in molar units. Broadly, the Papp B→A is the apparent permeability from the basolateral to the apical side of a cell layer. A word on the Papp: it is the rate of passage across a membrane or cell layer, normalised by area and donor concentration. A lower Papp goes with slow passage. The term efflux ratio denotes a quotient of directional permeabilities that is used to spot active efflux. As for `C[C@H](Oc1ccc(C#N)cc1C(=O)N1Cc2cn(-c3ccccc3F)nc2C1)C(F)(F)F`, the microsomal CLint at 1 µM came out at 13.5 µL/min/mg in data set [1] and 451 µL/min/mg in data set [7]. Also, the pIC50 in data set [2] is 7.11; at Cytochrome P450 2D6, under 5.00; on Cytochrome P450 2C19, under 5.00; on Cytochrome P450 2C9 it was under 5.00; in [5], 6.97; on Cytochrome P450 1A2 it was under 5.00. For the same compound, at Cytochrome P450 3A4, the pIC50 is under 5.00. Also, in data set [3], the Papp B→A at 1 h, 5 µM came to 61.7 ×10⁻⁶ cm/s. The same compound registered a Papp at 1 h, 100 µM in data set [4] of over 10 ×10⁻⁶ cm/s. The efflux ratio at 1 h, 5 µM in [6] was determined as 1.1.

For `CS(=O)(=O)c1ccc(OCC2CC2)c(C(=O)N2Cc3cn(-c4ccccc4F)nc3C2)c1`, the microsomal CLint at 1 µM in data set [1] was 0.3 µL/min/mg; in [7], 5.3 µL/min/mg. In addition, the pIC50 is 7.42 in [2]; under 5.00 at Cytochrome P450 2D6; under 5.00 on Cytochrome P450 2C19; under 5.00 at Cytochrome P450 2C9; 7.55 in data set [5]; under 5.00 at Cytochrome P450 1A2. Besides, the pIC50 at Cytochrome P450 3A4 is under 5.00. Further, in data set [3], the Papp B→A at 1 h, 5 µM is 58.9 ×10⁻⁶ cm/s. In data set [4], the Papp at 1 h, 100 µM is 77.9 ×10⁻⁶ cm/s. Further, the efflux ratio at 1 h, 5 µM in data set [6] was 2.4.
